According to patent US5120841A, “Cephalosporin ester derivatives” (Takeda Chemical Industries, Ltd., priority 1983, dated 1992):
Counter-ions that a name gives are not always drawn.

Legend:
[1] = oral administration to mice: plasma level of non-ester compound (compound [II]), AUC and bioavailability; format: in vivo; conditions: compound [II] in plasma, 100 mg/kg (in terms of compound [II]), zero to 2 hours
[2] = mouse, in vivo, sc, 120 min
Experimental: At 0.25, 0.5, 1.0 and 2.0 hours after administration, the concentration of compound [II] in plasma of the mouse is measured by the cup method using Proteus mirabilis Eb 313 as the test organism and the area under plasma concentration-time curve from zero to 2 hours (AUC) is calculated.
The compound [II ] was subcutaneously applied and AUC was calculated in the same manner as above.

Staphylococcus aureus = conditions: gram-positive bacteria, Antimicrobial Agent and Chemotherapy 14, 557-568 (1978); cited from earlier work
Escherichia coli = conditions: gram-negative bacteria, Antimicrobial Agent and Chemotherapy 14, 557-568 (1978); cited from earlier work
Klebsiella pneumoniae = conditions: gram-negative bacteria, Antimicrobial Agent and Chemotherapy 14, 557-568 (1978); cited from earlier work
Proteus vulgaris = conditions: gram-negative bacteria, Antimicrobial Agent and Chemotherapy 14, 557-568 (1978); cited from earlier work
Proteus mirabilis = conditions: gram-negative bacteria, Antimicrobial Agent and Chemotherapy 14, 557-568 (1978); cited from earlier work
proteus morganii = conditions: gram-negative bacteria, Antimicrobial Agent and Chemotherapy 14, 557-568 (1978); cited from earlier work

SMILES | AUC [1] | other results
CC(OC(=O)OC1CCCCC1)OC(=O)C1=C(CSc2nnnn2CCN(C)C)CS[C@@H]2[C@H](NC(=O)Cc3csc(N)n3)C(=O)N12.Cl.Cl (stereo partly drawn) [Example 2-1, 1-(Cyclohexyloxycarbonyloxy)ethyl 7β-[2-(2-aminothiazol-4-yl)acetamido]-3-[[[1-(2-dimethylaminoethyl)-1H-tetrazol-5-yl]thio]methyl]ceph-3-em-4-carboxylate dihydrochloride] | 30000 ng·h/mL | 
CN(C)CCn1nnnc1SCC1=C(C(=O)OCOC(=O)OC2CCCCCCCCCCC2)N2C(=O)[C@@H](NC(=O)Cc3csc(N)n3)[C@H]2SC1 [Example 1-5] | 33100 ng·h/mL | 
CC(OC(=O)OC1CCCCC1C)OC(=O)C1=C(CSc2nnnn2CCN(C)C)CSC2C(NC(=O)Cc3csc(N)n3)C(=O)N12 (stereo not drawn) [Example 2-12] |  | AUC ([1]; 100 mg/kg): 35500 ng·h/mL
CCOC(=O)OC(C)OC(=O)C1=C(CSc2nnnn2CCN(C)C)CS[C@@H]2[C@H](NC(=O)Cc3csc(N)n3)C(=O)N12 (stereo partly drawn) [A, 1-(ethoxycarbonyloxy)ethyl 78-[2-(2-aminothiazol-4-yl)acetamido]-3-[[[1-(2-dimethylaminoethyl)-1H-tetrazol-5-yl]-thio]methyl]ceph-3-em-4-carboxylate, reference compound] | 9280 ng·h/mL | 
CN(C)CCn1nnnc1SCC1=C(C(=O)OCOC(=O)OC2CCCCC2)N2C(=O)[C@@H](NC(=O)Cc3csc(N)n3)[C@H]2SC1 [Example 1-1, Cyclohexyloxycarbonyloxy 7β-[2-Aminothiazol-4-yl)Acetamido]-3-[[[1-(2-Dimethylaminoethyl)-1H-Tetrazol-5-yl]Thio]Methyl]Ceph-3-Em-4-Carboxylate Dihydrochloride] | 30000 ng·h/mL | 
CC(C)[C@@H]1CC[C@@H](C)C[C@H]1OC(=O)OCOC(=O)C1=C(CSc2nnnn2CCN(C)C)CS[C@@H]2[C@H](NC(=O)Cc3csc(N)n3)C(=O)N12 [Example 1-6] | 29400 ng·h/mL | 
CC1CCCC(OC(=O)OC(C)OC(=O)C2=C(CSc3nnnn3CCN(C)C)CS[C@@H]3[C@H](NC(=O)Cc4csc(N)n4)C(=O)N23)C1 (stereo partly drawn) [Example 2-10] | 30100 ng·h/mL | 
CN(C)CCn1nnnc1SCC1=C(C(=O)O)N2C(=O)[C@@H](NC(=O)Cc3csc(N)n3)[C@H]2SC1 [compound[II], 7β-[2-(2-aminothiazol-4-yl)acetamido]-3-[[[1-(2-dimethylaminoethyl)-1H-tetrazol-5-yl]thio]methyl]-ceph-3-em-4-carboxylic acid] |  | Bioavailability [2]: 100%; antibacterial activity (Staphylococcus aureus): potent antibacterial activity; antibacterial activity (Escherichia coli): potent antibacterial activity; antibacterial activity (Klebsiella pneumoniae): potent antibacterial activity; antibacterial activity (Proteus vulgaris): potent antibacterial activity; antibacterial activity (Proteus mirabilis): potent antibacterial activity; antibacterial activity (proteus morganii): potent antibacterial activity
CC(OC(=O)OC1CCCCC1C)OC(=O)C1=C(CSc2nnnn2CCN(C)C)CSC2C(NC(=O)Cc3csc(N)n3)C(=O)N12 (stereo not drawn) [Example 2-13] |  | AUC ([1]; 100 mg/kg): 36100 ng·h/mL

Continued, in another order:

AUC [1] | SMILES | other results
35400 ng·h/mL | CC(OC(=O)OC1CCCCC1C)OC(=O)C1=C(CSc2nnnn2CCN(C)C)CS[C@@H]2[C@H](NC(=O)Cc3csc(N)n3)C(=O)N12 (stereo partly drawn) [Example 2-11] | 
31300 ng·h/mL | CCC(OC(=O)OC1CCCCC1)OC(=O)C1=C(CSc2nnnn2CCN(C)C)CS[C@@H]2[C@H](NC(=O)Cc3csc(N)n3)C(=O)N12 (stereo partly drawn) [Example 5-2] | 
36300 ng·h/mL | CCCC(OC(=O)OC1CCCCC1)OC(=O)C1=C(CSc2nnnn2CCN(C)C)CS[C@@H]2[C@H](NC(=O)Cc3csc(N)n3)C(=O)N12 (stereo partly drawn) [Example 5-7] | 
